According to BigSolDB 2.1:

O=C(O)c1ccccc1
solubility (mole fraction)
Conditions	in chloroform	in cyclohexane	in ethanol	in n-heptane	in n-pentane	in toluene
278.15 K	0.074	–	0.128	0.005	0.004	0.035
283.15 K	0.086	0.006	0.139	0.006	0.005	0.043
293.15 K	0.114	0.009	0.166	0.01	0.007	0.062
303.15 K	0.151	0.015	0.196	0.015	0.011	0.089
313.15 K	0.196	0.025	0.234	0.022	–	0.128
323.15 K	0.253	0.039	0.276	0.033	–	0.178
